The values below come from patent US8691865B2 (AbbVie Inc., priority 2008, dated 2014).

As a reminder, the IC50 is the concentration needed to halve the response being measured.

human Cav2.2, sequence (Q00975 whole entry): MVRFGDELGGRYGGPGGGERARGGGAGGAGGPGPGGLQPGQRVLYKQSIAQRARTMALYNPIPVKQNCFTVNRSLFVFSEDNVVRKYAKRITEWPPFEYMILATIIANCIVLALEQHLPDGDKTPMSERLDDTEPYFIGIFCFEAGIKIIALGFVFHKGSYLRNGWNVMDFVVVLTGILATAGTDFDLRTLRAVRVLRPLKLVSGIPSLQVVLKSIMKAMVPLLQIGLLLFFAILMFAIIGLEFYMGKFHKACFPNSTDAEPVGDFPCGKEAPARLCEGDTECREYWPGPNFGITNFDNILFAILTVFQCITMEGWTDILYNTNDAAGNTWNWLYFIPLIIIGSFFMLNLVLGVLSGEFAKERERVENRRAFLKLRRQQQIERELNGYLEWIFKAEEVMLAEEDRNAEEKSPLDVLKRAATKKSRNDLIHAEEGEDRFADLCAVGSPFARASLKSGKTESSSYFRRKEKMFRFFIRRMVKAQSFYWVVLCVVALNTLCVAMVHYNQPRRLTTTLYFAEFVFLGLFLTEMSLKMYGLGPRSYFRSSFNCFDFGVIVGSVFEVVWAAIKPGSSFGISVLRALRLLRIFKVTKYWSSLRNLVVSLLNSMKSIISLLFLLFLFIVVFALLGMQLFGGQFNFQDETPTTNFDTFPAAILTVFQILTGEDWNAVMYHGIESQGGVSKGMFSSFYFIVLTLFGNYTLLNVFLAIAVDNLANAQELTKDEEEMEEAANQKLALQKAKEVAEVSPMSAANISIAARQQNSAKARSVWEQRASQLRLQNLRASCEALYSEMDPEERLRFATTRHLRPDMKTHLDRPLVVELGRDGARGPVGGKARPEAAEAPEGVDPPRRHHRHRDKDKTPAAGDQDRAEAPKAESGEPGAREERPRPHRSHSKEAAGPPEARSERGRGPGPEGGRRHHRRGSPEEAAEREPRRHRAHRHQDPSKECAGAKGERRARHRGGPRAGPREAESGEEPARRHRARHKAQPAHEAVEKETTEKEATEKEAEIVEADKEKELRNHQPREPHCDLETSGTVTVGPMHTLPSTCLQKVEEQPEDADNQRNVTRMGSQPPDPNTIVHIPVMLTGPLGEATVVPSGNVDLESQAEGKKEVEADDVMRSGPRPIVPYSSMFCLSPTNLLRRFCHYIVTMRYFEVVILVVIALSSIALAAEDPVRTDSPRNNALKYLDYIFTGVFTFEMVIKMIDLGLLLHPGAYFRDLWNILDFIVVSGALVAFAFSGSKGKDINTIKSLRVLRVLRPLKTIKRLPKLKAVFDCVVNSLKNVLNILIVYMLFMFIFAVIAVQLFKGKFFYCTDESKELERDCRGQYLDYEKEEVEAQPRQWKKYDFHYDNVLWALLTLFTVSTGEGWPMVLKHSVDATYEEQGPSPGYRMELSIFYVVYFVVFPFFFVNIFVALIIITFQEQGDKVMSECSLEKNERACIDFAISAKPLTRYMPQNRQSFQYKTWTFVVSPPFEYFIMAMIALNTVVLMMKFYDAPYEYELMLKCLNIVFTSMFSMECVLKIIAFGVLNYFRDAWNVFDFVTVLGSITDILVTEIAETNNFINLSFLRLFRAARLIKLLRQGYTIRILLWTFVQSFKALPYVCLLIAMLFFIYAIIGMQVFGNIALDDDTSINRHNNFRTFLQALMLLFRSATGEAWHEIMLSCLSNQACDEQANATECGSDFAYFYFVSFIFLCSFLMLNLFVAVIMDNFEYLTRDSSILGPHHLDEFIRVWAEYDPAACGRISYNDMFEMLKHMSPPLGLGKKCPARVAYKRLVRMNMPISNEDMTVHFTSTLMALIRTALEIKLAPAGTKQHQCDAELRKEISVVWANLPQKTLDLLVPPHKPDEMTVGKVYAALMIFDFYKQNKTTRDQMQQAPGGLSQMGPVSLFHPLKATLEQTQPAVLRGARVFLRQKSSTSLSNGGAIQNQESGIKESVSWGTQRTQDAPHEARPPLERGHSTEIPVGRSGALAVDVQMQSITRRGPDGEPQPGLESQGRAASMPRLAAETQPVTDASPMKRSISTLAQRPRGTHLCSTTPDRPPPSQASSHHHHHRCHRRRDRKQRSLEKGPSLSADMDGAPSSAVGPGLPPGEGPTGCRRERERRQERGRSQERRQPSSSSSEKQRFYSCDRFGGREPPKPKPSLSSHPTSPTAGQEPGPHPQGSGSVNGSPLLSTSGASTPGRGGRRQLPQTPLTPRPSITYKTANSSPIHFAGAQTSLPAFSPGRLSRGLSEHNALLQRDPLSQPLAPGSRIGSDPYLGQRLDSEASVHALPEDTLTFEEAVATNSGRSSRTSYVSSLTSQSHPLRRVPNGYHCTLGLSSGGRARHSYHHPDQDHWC
human Cav2.2, sequence (P54289 25-956 partner limits assumed): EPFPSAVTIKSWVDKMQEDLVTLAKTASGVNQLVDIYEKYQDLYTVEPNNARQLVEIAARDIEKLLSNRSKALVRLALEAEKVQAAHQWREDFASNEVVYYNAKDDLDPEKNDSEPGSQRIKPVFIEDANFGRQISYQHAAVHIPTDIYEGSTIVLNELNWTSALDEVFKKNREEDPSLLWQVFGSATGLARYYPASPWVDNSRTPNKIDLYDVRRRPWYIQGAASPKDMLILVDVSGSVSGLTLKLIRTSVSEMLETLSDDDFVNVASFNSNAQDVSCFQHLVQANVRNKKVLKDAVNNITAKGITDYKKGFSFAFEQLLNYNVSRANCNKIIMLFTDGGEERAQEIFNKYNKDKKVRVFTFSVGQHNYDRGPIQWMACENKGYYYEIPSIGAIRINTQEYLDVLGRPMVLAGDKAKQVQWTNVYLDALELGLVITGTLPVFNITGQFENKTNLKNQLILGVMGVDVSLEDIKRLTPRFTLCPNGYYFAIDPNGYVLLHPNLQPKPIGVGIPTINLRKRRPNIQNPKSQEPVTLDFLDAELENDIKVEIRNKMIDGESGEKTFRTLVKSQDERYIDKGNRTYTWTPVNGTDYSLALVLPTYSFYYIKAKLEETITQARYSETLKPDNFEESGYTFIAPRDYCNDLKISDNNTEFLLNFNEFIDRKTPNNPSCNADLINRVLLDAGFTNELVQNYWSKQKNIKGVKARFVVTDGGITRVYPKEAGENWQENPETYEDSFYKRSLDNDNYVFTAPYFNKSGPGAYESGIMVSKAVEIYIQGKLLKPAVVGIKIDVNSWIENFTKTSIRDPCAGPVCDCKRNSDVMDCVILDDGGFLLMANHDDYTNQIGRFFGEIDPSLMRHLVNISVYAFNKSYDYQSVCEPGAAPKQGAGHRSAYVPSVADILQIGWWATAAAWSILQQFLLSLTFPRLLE
human Cav2.2, sequence (P54289 957-1103 partner limits assumed): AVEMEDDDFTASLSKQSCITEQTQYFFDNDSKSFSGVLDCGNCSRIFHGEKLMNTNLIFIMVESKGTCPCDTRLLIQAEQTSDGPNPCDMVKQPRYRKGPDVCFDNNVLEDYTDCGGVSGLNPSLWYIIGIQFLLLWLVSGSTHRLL
human Cav2.2, sequence (P54284 whole entry partner): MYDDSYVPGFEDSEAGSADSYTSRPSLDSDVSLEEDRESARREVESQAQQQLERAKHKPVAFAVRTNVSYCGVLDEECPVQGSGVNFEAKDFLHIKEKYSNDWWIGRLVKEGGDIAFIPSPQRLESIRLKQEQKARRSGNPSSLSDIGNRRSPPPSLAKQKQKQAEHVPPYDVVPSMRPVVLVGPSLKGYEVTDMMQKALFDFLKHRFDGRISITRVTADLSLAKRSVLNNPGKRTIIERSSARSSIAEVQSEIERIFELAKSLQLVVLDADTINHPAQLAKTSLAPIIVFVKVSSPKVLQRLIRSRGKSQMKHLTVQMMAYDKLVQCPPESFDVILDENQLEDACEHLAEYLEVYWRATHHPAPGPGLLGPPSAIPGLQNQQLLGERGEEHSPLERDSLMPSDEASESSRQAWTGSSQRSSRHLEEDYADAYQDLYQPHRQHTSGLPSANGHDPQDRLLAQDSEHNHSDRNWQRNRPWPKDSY

The first assay concerns the target human Cav2.2 (Homo sapiens, UniProt Q00975). The experiment in a line: Assessment of calcium channel activity using FLIPR (Ca2+ influx in IMR32 cells).
Conditions: not given
Type of assay: cell-based. The procedure, abridged:
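Human neuroblastoma IMR32 cells were seeded at 1−1.2×10^5 cells/well and cultured 48 h at 37 °C before FLIPR calcium influx measurement. Percent inhibition at each concentration was calculated against the no-inhibitor signal, and IC50 came from sigmoidal dose-response fits.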
With `FC(F)(F)c1ccc(-c2nc(CN[C@H]3CC[C@@H]4CN(c5cccc(C(F)(F)F)n5)C[C@@H]43)c[nH]2)cc1` [Example 742, (3aR,4S,6aS)-N-({2-[4-(trifluoromethyl)phenyl]-1H-imidazol-4-yl}methyl)-2-[6-(trifluoromethyl)pyridin-2-yl]octahydrocyclopenta[c]pyrrol-4-amine], the IC50 came out at 1.3 µM.

As to `COc1ccc2[nH]c(CN[C@H]3CC[C@@H]4CN(c5cccc(C(F)(F)F)n5)C[C@@H]43)c(C)c2c1` [Example 668, (3aR,4S,6aS)-N-[(5-methoxy-3-methyl-1H-indol-2-yl)methyl]-2-[6-(trifluoromethyl)pyridin-2-yl]octahydrocyclopenta[c]pyrrol-4-amine], the IC50 was 1.55 µM.

Consider `Cc1c(CN[C@H]2CC[C@@H]3CN(c4cccc(C(F)(F)F)n4)C[C@@H]32)[nH]c2ccc(F)cc12` [Example 667, (3aR,4S,6aS)-N-[(5-fluoro-3-methyl-1H-indol-2-yl)methyl]-2-[6-(trifluoromethyl)pyridin-2-yl]octahydrocyclopenta[c]pyrrol-4-amine], for which the IC50 worked out at 1.49 µM.

On to `CC(C)(C)CCN[C@H]1CC[C@@H]2CN(c3cccc(C(F)(F)F)n3)C[C@@H]21` [Example 611, (3aR,4S,6aS)-N-(3,3-dimethylbutyl)-2-[6-(trifluoromethyl)pyridin-2-yl]octahydrocyclopenta[c]pyrrol-4-amine], for which the IC50 is 0.5 µM.

Take `O=S(=O)(N[C@H]1CC[C@@H]2CN(c3cccc(C(F)(F)F)n3)C[C@@H]21)c1ccccc1` [Example 708, N-{(3aR,4S,6aS)-2-[6-(trifluoromethyl)pyridin-2-yl]octahydrocyclopenta[c]pyrrol-4-yl}benzenesulfonamide]: the IC50 is 3.35 µM.

As to `CC(C)(C)C[C@H](NCC1CC1)C(=O)N[C@H]1CC[C@@H]2CN(c3ccc(C(F)(F)F)cn3)C[C@@H]21` [Example 478, N^2-(cyclopropylmethyl)-4-methyl-N^1-{(3aR,4S,6aS)-2-[5-(trifluoromethyl)pyridin-2-yl]octahydrocyclopenta[c]pyrrol-4-yl}-L-leucinamide], the IC50 is 0.46 µM.

Consider `CC[C@H](N)C(=O)N[C@H]1CC[C@@H]2CN(c3ccc(C(F)(F)F)cc3)C[C@@H]21` [Example 755, (2S)-2-amino-N-{(3aR,4S,6aS)-2-[4-(trifluoromethyl)phenyl]octahydrocyclopenta[c]pyrrol-4-yl}butanamide], for which the IC50 is above 3 µM.

Turning to `O=C(N[C@H]1CC[C@@H]2CN(c3ccccc3OC(F)(F)F)C[C@@H]21)[C@@H]1C[C@@H](F)CN1` [Example 656, (4R)-4-fluoro-N-{(3aR,4S,6aS)-2-[2-(trifluoromethoxy)phenyl]octahydrocyclopenta[c]pyrrol-4-yl}-L-prolinamide], the IC50 is 2.16 µM.

For the compound `O=C(N[C@H]1CC[C@H]2CN(Cc3cccc(C(F)(F)F)c3)C[C@H]21)C1CCCC1` (relative stereo) [Example 129, N-{(3aS*,4S*,6aR*)-2-[3-(trifluoromethyl)benzyl]octahydrocyclopenta[c]pyrrol-4-yl}cyclopentanecarboxamide], the IC50 worked out at 2.31 µM.

As to `N#Cc1cccc(N2C[C@H]3CC[C@H](NC(=O)[C@@H]4C[C@@H](F)CN4)[C@H]3C2)c1` [Example 632, (4R)-N-[(3aR,4S,6aS)-2-(3-cyanophenyl)octahydrocyclopenta[c]pyrrol-4-yl]-4-fluoro-L-prolinamide], the IC50 came to 18.9 µM.

For `O=C(N[C@H]1CC[C@@H]2CN(c3ccccc3Cl)C[C@@H]21)[C@@H]1C[C@@H](F)CN1` [Example 659, (4R)-N-[(3aR,4S,6aS)-2-(2-chlorophenyl)octahydrocyclopenta[c]pyrrol-4-yl]-4-fluoro-L-prolinamide], the IC50 stood at 6.85 µM.

`O=C(N[C@H]1CC[C@@H]2CN(S(=O)(=O)c3cccc(C(F)(F)F)c3)C[C@@H]21)[C@@H]1CCCN1` [Example 387, N-((3aR,4S,6aS)-2-{[3-(trifluoromethyl)phenyl]sulfonyl}octahydrocyclopenta[c]pyrrol-4-yl)-L-prolinamide]: the IC50 came out at 5.87 µM.

With `O=C(N[C@H]1CC[C@H]2CN(Cc3ccccc3)C[C@H]21)C(c1ccccc1)C1CCCC1` (relative stereo) [Example 7, N-[(3aS*,4S*,6aR*)-2-benzyloctahydrocyclopenta[c]pyrrol-4-yl]-2-cyclopentyl-2-phenylacetamide], the IC50 amounted to 0.92 µM.

On to `CN(C)[C@@H](CC1CC1)C(=O)N[C@H]1CC[C@@H]2CN(c3ccc(OC(F)(F)F)cc3)C[C@@H]21` [Example 777, 3-cyclopropyl-N^2,N^2-dimethyl-N-{(3aR,4S,6aS)-2-[4-(trifluoromethoxy)phenyl]octahydrocyclopenta[c]pyrrol-4-yl}-L-alaninamide], for which the IC50 came out at 2.16 µM.

In the case of `O=C(N[C@H]1CC[C@@H]2CN(c3ccc(C(F)(F)F)cc3)C[C@@H]21)[C@@H]1C[C@@H](F)CN1` [Example 781, (4R)-4-fluoro-N-{(3aR,4S,6aS)-2-[4-(trifluoromethyl)phenyl]octahydrocyclopenta[c]pyrrol-4-yl}-L-prolinamide], the IC50 is 8.26 µM.

On to `CN[C@@H](CC(C)C)C(=O)N[C@H]1CC[C@@H]2CN(c3ccccc3C)C[C@@H]21` [Example 630, N^2-methyl-N-[(3aR,4S,6aS)-2-(2-methylphenyl)octahydrocyclopenta[c]pyrrol-4-yl]-L-leucinamide], for which the IC50 was 3.34 µM.

Take `CN[C@@H](CC(C)C)C(=O)N[C@H]1CC[C@@H]2CN(c3ccc(F)cc3)C[C@@H]21` [Example 620, N-[(3aR,4S,6aS)-2-(4-fluorophenyl)octahydrocyclopenta[c]pyrrol-4-yl]-N^2-methyl-L-leucinamide]: the half-maximal inhibitory concentration (IC50) turned out to be 5.31 µM.

As to `COc1ccc(N2C[C@H]3CC[C@H](NC(=O)[C@@H]4C[C@@H](F)CN4)[C@H]3C2)cc1` [Example 653, (4R)-4-fluoro-N-[(3aR,4S,6aS)-2-(4-methoxyphenyl)octahydrocyclopenta[c]pyrrol-4-yl]-L-prolinamide], the IC50 is above 30 µM.

Take `Fc1cc(F)cc(-c2n[nH]cc2CN[C@H]2CC[C@@H]3CN(c4cccc(C(F)(F)F)n4)C[C@@H]32)c1` [Example 687, (3aR,4S,6aS)-N-{[3-(3,5-difluorophenyl)-1H-pyrazol-4-yl]methyl}-2-[6-(trifluoromethyl)pyridin-2-yl]octahydrocyclopenta[c]pyrrol-4-amine]: the half-maximal inhibitory concentration (IC50) was found to be 1.27 µM.

For the compound `CC[C@H](C)[C@H](NC)C(=O)N[C@H]1CC[C@@H]2CN(S(=O)(=O)c3ccc(C(F)(F)F)cc3)C[C@@H]21` [Example 411, N^2-methyl-N^1-((3aR,4S,6aS)-2-{[4-(trifluoromethyl)phenyl]sulfonyl}octahydrocyclopenta[c]pyrrol-4-yl)-L-isoleucinamide], the IC50 was 2.31 µM.

The assay is the same for the next values; noted with them: read-out: IC50 (μM) or percent inhibition (* indicates 3 minute incubation, otherwise 60 minute); IC50; 60 minute pre-incubation with compound; IMR32 cells, 80 mM KCl depolarization.
Consider `CC(C)(C)[C@@H](C(=O)N[C@@H]1CC[C@H]2CN(Cc3ccccc3)C[C@H]21)c1ccccc1` [Example 32, (2R)-N-[(3aS,4R,6aR)-2-benzyloctahydrocyclopenta[c]pyrrol-4-yl]-3,3-dimethyl-2-phenylbutanamide], for which the IC50 is 1.42 µM.

Consider `CC(C)C[C@@H](C(=O)N[C@@H]1CC[C@@H]2CN(Cc3ccccc3)C[C@@H]21)N(C)C(=O)OC(C)(C)C` [Example 241], for which the IC50 came out at 2.08 µM.

For the compound `CCC[C@H](NC)C(=O)N[C@H]1CC[C@@H]2CN(Cc3cccc(C(F)(F)F)c3)C[C@@H]21` [Example 376, N^2-methyl-N^1-{(3aR,4S,6aS)-2-[3-(trifluoromethyl)benzyl]octahydrocyclopenta[c]pyrrol-4-yl}-L-norvalinamide], the IC50 stood at 10.6 µM.

For the compound `CC[C@H](C(=O)N[C@@H]1CC[C@H]2CN(Cc3ccccc3)C[C@H]21)c1ccccc1` [Example 16, (2S)-N-[(3aS,4R,6aR)-2-benzyloctahydrocyclopenta[c]pyrrol-4-yl]-2-phenylbutanamide], the IC50 was determined as 9.75 µM.

As to “N-(tert-butoxycarbonyl)-N-((3aR,4S,6aS)-2-{[3-(trifluoromethyl)phenyl]sulfonyl}octahydrocyclopenta[c]pyrrol-4-yl)-L-phenylalaninamide [Example 269]”, the IC50 is 1.9 µM.

For the compound `O=C(N[C@@H]1CC[C@H]2CN(Cc3cc(C(F)(F)F)cc(C(F)(F)F)c3)C[C@H]21)C(C1CCCCC1)C1CCCCC1` [Example 77, N-{(3aS,4R,6aR)-2-[3,5-bis(trifluoromethyl)benzyl]octahydrocyclopenta[c]pyrrol-4-yl}-2,2-dicyclohexylacetamide], the IC50 was found to be 9.36 µM.

Regarding `CCC[C@H](NC)C(=O)N[C@H]1CC[C@@H]2CN(C(=O)c3cccc(C(F)(F)F)c3)C[C@@H]21` [Example 554, N^2-methyl-N^1-{(3aR,4S,6aS)-2-[3-(trifluoromethyl)benzoyl]octahydrocyclopenta[c]pyrrol-4-yl}-L-norvalinamide], the IC50 is 10.3 µM.

Regarding `CC(C)C(C(=O)N[C@H]1CC[C@H]2CN(Cc3ccccc3)C[C@H]21)c1ccccc1` (stereo partly drawn) [Example 14, N-[(3aS,4S,6aR)-2-benzyloctahydrocyclopenta[c]pyrrol-4-yl]-3-methyl-2-phenylbutanamide], the IC50 was determined as 3.79 µM.

As for `O=C(N[C@@H]1CC[C@H]2CN(CCCC(c3ccc(F)cc3)c3ccc(F)cc3)C[C@H]21)C(C1CCCCC1)C1CCCCC1` [Example 81, N-{(3aS,4R,6aR)-2-[4,4-bis(4-fluorophenyl)butyl]octahydrocyclopenta[c]pyrrol-4-yl}-2,2-dicyclohexylacetamide], the IC50 was determined as 1.13 µM.

Take `CCC[C@H](NC)C(=O)N[C@H]1CC[C@@H]2CN(Cc3ccc(C(F)(F)F)cc3)C[C@@H]21` [Example 377, N^2-methyl-N^1-{(3aR,4S,6aS)-2-[4-(trifluoromethyl)benzyl]octahydrocyclopenta[c]pyrrol-4-yl}-L-norvalinamide]: the IC50 is 13.3 µM.

As to `CC(C)C(C(=O)N[C@H]1CC[C@@H]2CN(Cc3ccccc3F)C[C@@H]21)c1ccccc1` (stereo partly drawn) [Example 85, N-[(3aR,4S,6aS)-2-(2-fluorobenzyl)octahydrocyclopenta[c]pyrrol-4-yl]-3-methyl-2-phenylbutanamide], the IC50 was 3.59 µM.
